Tests used:
Human κ-Opioid (KOP) = molecular target: T1, Human κ-Opioid (KOP) (Homo sapiens, UniProt P41145); assay: Radioligand binding, human κ-opioid (KOP) membranes, filtration, [3H]-Diprenorphine; conditions: compound at 10 μM; for A2: inhibition of radioligand binding: [3H]-Diprenorphine
T1 construct: purchased Perkin Elmer Biosignal
How it was run: (§1)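 Filtration binding on cloned human receptor membranes (1 Unit/well), [125I]-Substance P for NK1 and [3H]-Diprenorphine for KOP, 1 h at room temperature. Filters PEI-presoaked, washed with cold 50 mM Tris-HCl pH 7.4, counted by scintillation; percent inhibition calculated, reference ligand defining non-specific binding.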

[1] = molecular target: T2, Human melanin-concentrating hormone (MCH1) (Homo sapiens, UniProt Q99705); assay: Radioligand binding, human melanin-concentrating hormone MCH1 membranes, FlashPlate, [125I]-S36057; conditions: compound at 10 μM
T2 construct: purchased Perkin Elmer Biosignal
T2 sequence (Q99705 whole entry): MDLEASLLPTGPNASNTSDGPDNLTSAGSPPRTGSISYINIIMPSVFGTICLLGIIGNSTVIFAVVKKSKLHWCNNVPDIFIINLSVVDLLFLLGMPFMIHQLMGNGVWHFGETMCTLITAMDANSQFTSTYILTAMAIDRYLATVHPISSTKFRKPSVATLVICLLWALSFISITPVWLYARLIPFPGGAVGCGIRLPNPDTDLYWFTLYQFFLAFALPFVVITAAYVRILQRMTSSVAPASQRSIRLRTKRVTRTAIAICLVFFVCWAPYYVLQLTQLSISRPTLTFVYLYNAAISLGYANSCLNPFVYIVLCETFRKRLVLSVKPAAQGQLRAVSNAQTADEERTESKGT
How it was run: (§2)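 Cloned human receptor membranes were coated onto FlashPlate wells and incubated with radioligand and compound (added from a 0.5 mM DMSO daughter plate) for 1 hour at room temperature in the dark. Scintillation counting gave percent inhibition, with DMSO defining total and reference ligand defining non-specific binding.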

Human neurokinin (NK1) = molecular target: T3, Human neurokinin (NK1) (Homo sapiens, UniProt P25103); assay: Radioligand binding, human neurokinin NK1 membranes, filtration, [125I]-Substance P; conditions: compound at 10 μM; for A8: inhibition of radioligand binding: [125I]-Substance P
T3 construct: purchased Perkin Elmer Biosignal
T3 sequence (P25103 whole entry): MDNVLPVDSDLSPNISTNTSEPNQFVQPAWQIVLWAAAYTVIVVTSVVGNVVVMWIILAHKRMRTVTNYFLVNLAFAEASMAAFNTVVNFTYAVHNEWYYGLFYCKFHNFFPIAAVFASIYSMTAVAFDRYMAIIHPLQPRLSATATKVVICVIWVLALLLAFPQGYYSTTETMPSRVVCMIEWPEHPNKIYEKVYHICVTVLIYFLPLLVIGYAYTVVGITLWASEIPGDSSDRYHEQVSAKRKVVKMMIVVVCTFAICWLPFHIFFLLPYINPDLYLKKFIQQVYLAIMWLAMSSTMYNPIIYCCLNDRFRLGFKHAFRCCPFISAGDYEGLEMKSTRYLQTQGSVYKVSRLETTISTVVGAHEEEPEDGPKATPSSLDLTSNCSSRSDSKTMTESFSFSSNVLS
How it was run: as §1

Human μ-opioid (MOP) = molecular target: T4, Human μ-opioid (MOP) (Homo sapiens, UniProt P35372); assay: Radioligand binding, human μ-opioid (MOP) membranes, FlashPlate, [3H]-Naloxone; conditions: compound at 10 μM; for A7: inhibition of radioligand binding: [3H]-Naloxone
T4 construct: purchased Perkin Elmer Biosignal
T4 sequence (P35372 whole entry): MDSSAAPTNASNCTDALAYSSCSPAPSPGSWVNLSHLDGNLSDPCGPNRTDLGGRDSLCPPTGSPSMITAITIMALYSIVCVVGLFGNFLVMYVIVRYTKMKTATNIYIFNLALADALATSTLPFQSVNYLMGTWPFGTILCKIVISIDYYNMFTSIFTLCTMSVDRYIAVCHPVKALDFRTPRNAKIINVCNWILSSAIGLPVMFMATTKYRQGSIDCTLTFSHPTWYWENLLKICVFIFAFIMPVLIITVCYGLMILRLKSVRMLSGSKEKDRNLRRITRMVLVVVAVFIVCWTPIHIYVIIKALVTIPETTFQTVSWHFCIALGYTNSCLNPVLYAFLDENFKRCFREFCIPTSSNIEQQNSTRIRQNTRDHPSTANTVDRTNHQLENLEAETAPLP
How it was run: as §2

Human melanocortin (MC5) = molecular target: T5, Human melanocortin (MC5) (Homo sapiens, UniProt P33032); assay: Radioligand binding, human melanocortin MC5 membranes, FlashPlate, [125I]-NDP-αMSH; conditions: compound at 10 μM; for A5: inhibition of radioligand binding: [125I]-NDP-αMSH
T5 construct: purchased Perkin Elmer Biosignal
T5 sequence (P33032 whole entry): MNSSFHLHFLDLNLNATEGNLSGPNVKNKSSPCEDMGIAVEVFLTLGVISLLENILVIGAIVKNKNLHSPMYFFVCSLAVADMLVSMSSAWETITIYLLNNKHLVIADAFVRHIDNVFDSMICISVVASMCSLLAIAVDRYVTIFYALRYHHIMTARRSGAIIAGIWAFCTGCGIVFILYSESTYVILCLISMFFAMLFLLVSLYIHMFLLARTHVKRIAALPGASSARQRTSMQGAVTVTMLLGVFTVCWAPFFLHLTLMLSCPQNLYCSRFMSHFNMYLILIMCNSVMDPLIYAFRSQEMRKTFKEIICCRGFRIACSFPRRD
How it was run: as §2

Human δ-opioid (DOP) = molecular target: T6, Human δ-opioid (DOP) (Homo sapiens, UniProt P41143); assay: Radioligand binding, human δ-opioid (DOP) membranes, FlashPlate, [3H]-Bremazocine; conditions: compound at 10 μM; for A1: inhibition of radioligand binding: [3H]-Bremazocine
T6 construct: purchased Perkin Elmer Biosignal
T6 sequence (P41143 whole entry): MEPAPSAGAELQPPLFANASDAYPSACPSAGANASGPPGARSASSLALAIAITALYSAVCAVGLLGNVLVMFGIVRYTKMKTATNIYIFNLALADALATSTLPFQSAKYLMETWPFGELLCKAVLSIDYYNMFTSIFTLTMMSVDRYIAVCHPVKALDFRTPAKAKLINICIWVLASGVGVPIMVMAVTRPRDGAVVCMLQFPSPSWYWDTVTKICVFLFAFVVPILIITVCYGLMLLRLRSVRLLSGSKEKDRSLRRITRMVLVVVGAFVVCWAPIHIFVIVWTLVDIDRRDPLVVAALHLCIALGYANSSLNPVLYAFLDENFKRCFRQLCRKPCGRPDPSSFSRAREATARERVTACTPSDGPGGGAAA
How it was run: as §2

[2] = molecular target: T7, Human neuropeptide Y (NPY-Y1) (Homo sapiens, UniProt P25929); assay: Radioligand binding, human neuropeptide Y NPY-Y1 membranes, FlashPlate, [125I]-PYY; conditions: compound at 10 μM; for A9: inhibition of radioligand binding: [125I]-PYY
T7 construct: purchased Perkin Elmer Biosignal
T7 sequence (P25929 1-384): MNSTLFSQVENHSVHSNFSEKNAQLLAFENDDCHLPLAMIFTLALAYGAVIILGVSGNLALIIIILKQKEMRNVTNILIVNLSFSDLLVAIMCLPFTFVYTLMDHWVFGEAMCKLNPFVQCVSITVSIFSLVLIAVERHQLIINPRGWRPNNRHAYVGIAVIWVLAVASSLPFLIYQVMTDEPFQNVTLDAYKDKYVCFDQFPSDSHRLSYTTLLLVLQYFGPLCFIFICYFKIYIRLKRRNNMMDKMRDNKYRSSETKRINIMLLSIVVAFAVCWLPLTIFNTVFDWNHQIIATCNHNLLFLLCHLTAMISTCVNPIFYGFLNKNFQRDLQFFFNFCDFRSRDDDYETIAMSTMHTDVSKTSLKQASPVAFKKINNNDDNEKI
How it was run: as §2

Human opioid (ORL1) = molecular target: T8, Human opioid (ORL1) (Homo sapiens, UniProt P41146); assay: Radioligand binding, human opioid ORL1 membranes, FlashPlate, [125I]-Nociceptin; conditions: compound at 10 μM; for A10: inhibition of radioligand binding: [125I]-Nociceptin
T8 construct: purchased Perkin Elmer Biosignal
T8 sequence (P41146 whole entry): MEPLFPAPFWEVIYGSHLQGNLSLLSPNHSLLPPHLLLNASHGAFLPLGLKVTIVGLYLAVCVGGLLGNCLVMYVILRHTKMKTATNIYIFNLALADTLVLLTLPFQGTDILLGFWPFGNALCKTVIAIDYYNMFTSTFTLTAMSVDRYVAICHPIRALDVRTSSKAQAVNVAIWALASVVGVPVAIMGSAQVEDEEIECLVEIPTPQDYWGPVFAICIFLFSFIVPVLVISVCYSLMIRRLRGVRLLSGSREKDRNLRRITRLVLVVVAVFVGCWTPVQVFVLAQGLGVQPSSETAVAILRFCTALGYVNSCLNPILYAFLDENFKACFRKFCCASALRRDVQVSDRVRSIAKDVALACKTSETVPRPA
How it was run: as §2

Mouse urotensin (mUR2) = molecular target: T9, Mouse urotensin (mUR2) (Mus musculus, UniProt Q8VIH9); assay: Radioligand binding, mouse urotensin mUR2 membranes, FlashPlate, [125I]-Urotensin II; conditions: compound at 10 μM; for A11: inhibition of radioligand binding: [125I]-Urotensin II
T9 construct: purchased Perkin Elmer Biosignal
T9 sequence (Q8VIH9 1-385): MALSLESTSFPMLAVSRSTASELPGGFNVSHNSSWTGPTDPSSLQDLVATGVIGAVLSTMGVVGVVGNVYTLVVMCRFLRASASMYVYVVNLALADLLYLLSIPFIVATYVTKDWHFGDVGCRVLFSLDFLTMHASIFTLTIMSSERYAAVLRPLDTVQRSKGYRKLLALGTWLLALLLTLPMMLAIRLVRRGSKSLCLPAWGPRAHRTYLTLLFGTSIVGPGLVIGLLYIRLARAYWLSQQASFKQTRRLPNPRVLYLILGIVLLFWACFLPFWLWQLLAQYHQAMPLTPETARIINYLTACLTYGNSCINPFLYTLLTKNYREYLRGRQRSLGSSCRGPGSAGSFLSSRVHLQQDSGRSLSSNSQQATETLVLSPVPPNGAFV
How it was run: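 Cloned mouse urotensin (mUR2) receptor membranes from Perkin Elmer Biosignal were immobilized in FlashPlate microplates using a proprietary coating. Each well got 19.5 μl buffer, then 0.5 μl of DMSO, reference ligand, or compound. Adding 5 μl of [125I]-Urotensin II, diluted to 5× final concentration in binding buffer, started binding. Plates were sealed with TopSeal-A and incubated 1 hour at room temperature in the dark. Wells were counted for 30 seconds each on a TopCount after a 60-second delay, and percentage inhibition was calculated.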

Human Melanocortin (MC4) = molecular target: T10, Human Melanocortin (MC4) (Homo sapiens, UniProt P32245); assay: Radioligand binding, human melanocortin MC4 membranes, FlashPlate, [125I]-NDP-αMSH; conditions: compound at 10 μM; for A4: inhibition of radioligand binding: [125I]-NDP-αMSH
T10 construct: purchased Perkin Elmer Biosignal
T10 sequence (P32245 whole entry): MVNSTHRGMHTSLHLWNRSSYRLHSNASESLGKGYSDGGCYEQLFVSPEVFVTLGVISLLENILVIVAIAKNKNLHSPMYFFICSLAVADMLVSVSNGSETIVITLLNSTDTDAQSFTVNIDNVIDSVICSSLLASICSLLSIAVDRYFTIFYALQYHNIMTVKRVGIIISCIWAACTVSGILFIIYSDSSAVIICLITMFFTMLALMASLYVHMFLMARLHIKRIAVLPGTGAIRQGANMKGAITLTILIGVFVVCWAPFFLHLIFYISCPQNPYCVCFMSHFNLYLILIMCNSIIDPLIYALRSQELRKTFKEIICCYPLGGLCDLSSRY
How it was run: as §2

Human Melanocortin (MC3) = molecular target: T11, Human Melanocortin (MC3) (Homo sapiens, UniProt P41968); assay: Radioligand binding, human melanocortin MC3 membranes, FlashPlate, [125I]-NDP-αMSH; conditions: compound at 10 μM; for A3: inhibition of radioligand binding: [125I]-NDP-αMSH
T11 construct: purchased Perkin Elmer Biosignal
T11 sequence (P41968 whole entry): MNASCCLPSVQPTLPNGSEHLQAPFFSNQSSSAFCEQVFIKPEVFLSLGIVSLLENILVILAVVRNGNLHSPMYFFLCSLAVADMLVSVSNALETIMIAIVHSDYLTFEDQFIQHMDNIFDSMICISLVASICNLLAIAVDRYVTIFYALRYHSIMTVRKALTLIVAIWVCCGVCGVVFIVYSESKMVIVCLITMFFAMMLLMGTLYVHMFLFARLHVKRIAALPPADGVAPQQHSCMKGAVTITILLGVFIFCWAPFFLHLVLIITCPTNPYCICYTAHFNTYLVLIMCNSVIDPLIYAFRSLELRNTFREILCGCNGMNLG
How it was run: as §2

T1 sequence (P41145 whole entry): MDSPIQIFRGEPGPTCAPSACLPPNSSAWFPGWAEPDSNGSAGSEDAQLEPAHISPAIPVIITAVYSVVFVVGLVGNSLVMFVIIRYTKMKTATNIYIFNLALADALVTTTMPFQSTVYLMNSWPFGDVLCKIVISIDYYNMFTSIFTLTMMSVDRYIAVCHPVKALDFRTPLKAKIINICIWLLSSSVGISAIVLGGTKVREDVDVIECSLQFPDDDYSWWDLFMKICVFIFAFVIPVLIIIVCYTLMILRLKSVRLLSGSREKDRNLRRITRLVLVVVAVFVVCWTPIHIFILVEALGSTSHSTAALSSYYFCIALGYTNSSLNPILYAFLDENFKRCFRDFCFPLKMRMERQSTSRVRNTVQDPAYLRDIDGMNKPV

## COCC1OC(OCc2ccc3ccccc3c2)C(NC(=O)CCCNC(=N)N)C(OCc2ccc3ccccc3c2)C1O (stereo not shown) [compound 250]
Human κ-Opioid (KOP); filtration
  A2: inhibition of radioligand binding: − (“−” indicates less than 50% inhibition at 10 μM)
[1]; [125I]-S36057, FlashPlate
  A6: inhibition of radioligand binding: + (“+” indicates greater than 50% inhibition at 10 μM)
Human neurokinin (NK1); filtration
  A8: inhibition of radioligand binding: + (“+” indicates greater than 50% inhibition at 10 μM)
Human μ-opioid (MOP); FlashPlate
  A7: inhibition of radioligand binding: − (“−” indicates less than 50% inhibition at 10 μM)
Human melanocortin (MC5); FlashPlate
  A5: inhibition of radioligand binding: + (“+” indicates greater than 50% inhibition at 10 μM)
Human δ-opioid (DOP); FlashPlate
  A1: inhibition of radioligand binding: − (“−” indicates less than 50% inhibition at 10 μM)
[2]; FlashPlate
  A9: inhibition of radioligand binding: − (“−” indicates less than 50% inhibition at 10 μM)
Human opioid (ORL1); FlashPlate
  A10: inhibition of radioligand binding: + (“+” indicates greater than 50% inhibition at 10 μM)
Mouse urotensin (mUR2); FlashPlate
  A11: inhibition of radioligand binding: − (“−” indicates less than 50% inhibition at 10 μM)
Human Melanocortin (MC4); FlashPlate
  A4: inhibition of radioligand binding: + (“+” indicates greater than 50% inhibition at 10 μM)
Human Melanocortin (MC3); FlashPlate
  A3: inhibition of radioligand binding: − (“−” indicates less than 50% inhibition at 10 μM)

## NCCC(=O)NC1C(OCc2ccc3ccccc3c2)OC(COCc2ccc3ccccc3c2)C(O)C1OCc1ccccc1 (stereo not shown) [compound 387]
Human κ-Opioid (KOP); human KOP membranes
  A2: inhibition of radioligand binding: − (“−” indicates less than 50% inhibition at 10 μM)
[1]; [125I]-S36057, human MCH1 membranes
  A6: inhibition of radioligand binding: − (“−” indicates less than 50% inhibition at 10 μM)
Human neurokinin (NK1); human NK1 membranes
  A8: inhibition of radioligand binding: + (“+” indicates greater than 50% inhibition at 10 μM)
Human μ-opioid (MOP); human MOP membranes
  A7: inhibition of radioligand binding: − (“−” indicates less than 50% inhibition at 10 μM)
Human melanocortin (MC5); human MC5 membranes
  A5: inhibition of radioligand binding: + (“+” indicates greater than 50% inhibition at 10 μM)
Human δ-opioid (DOP); human DOP membranes
  A1: inhibition of radioligand binding: − (“−” indicates less than 50% inhibition at 10 μM)
[2]; human NPY-Y1 membranes
  A9: inhibition of radioligand binding: − (“−” indicates less than 50% inhibition at 10 μM)
Human opioid (ORL1); human ORL1 membranes
  A10: inhibition of radioligand binding: − (“−” indicates less than 50% inhibition at 10 μM)
Mouse urotensin (mUR2); mouse mUR2 membranes
  A11: inhibition of radioligand binding: − (“−” indicates less than 50% inhibition at 10 μM)
Human Melanocortin (MC4); human MC4 membranes
  A4: inhibition of radioligand binding: + (“+” indicates greater than 50% inhibition at 10 μM)
Human Melanocortin (MC3); human MC3 membranes
  A3: inhibition of radioligand binding: + (“+” indicates greater than 50% inhibition at 10 μM)

## COCC1OC(OCc2ccc(Cl)cc2)C(NC(=O)CN)C(OCc2ccc(-c3ccccc3)cc2)C1O (stereo not shown) [compound 205]
Human κ-Opioid (KOP); filtration
  A2: inhibition of radioligand binding: − (“−” indicates less than 50% inhibition at 10 μM)
[1]; [125I]-S36057, FlashPlate
  A6: inhibition of radioligand binding: − (“−” indicates less than 50% inhibition at 10 μM)
Human neurokinin (NK1); filtration
  A8: inhibition of radioligand binding: + (“+” indicates greater than 50% inhibition at 10 μM)
Human μ-opioid (MOP); FlashPlate
  A7: inhibition of radioligand binding: − (“−” indicates less than 50% inhibition at 10 μM)
Human melanocortin (MC5); FlashPlate
  A5: inhibition of radioligand binding: + (“+” indicates greater than 50% inhibition at 10 μM)
Human δ-opioid (DOP); FlashPlate
  A1: inhibition of radioligand binding: − (“−” indicates less than 50% inhibition at 10 μM)
[2]; FlashPlate
  A9: inhibition of radioligand binding: − (“−” indicates less than 50% inhibition at 10 μM)
Human opioid (ORL1); FlashPlate
  A10: inhibition of radioligand binding: − (“−” indicates less than 50% inhibition at 10 μM)
Mouse urotensin (mUR2); FlashPlate
  A11: inhibition of radioligand binding: − (“−” indicates less than 50% inhibition at 10 μM)
Human Melanocortin (MC4); FlashPlate
  A4: inhibition of radioligand binding: + (“+” indicates greater than 50% inhibition at 10 μM)
Human Melanocortin (MC3); FlashPlate
  A3: inhibition of radioligand binding: − (“−” indicates less than 50% inhibition at 10 μM)

## NCCC(=O)NC1C(OCc2ccc3ccccc3c2)OC(COCc2ccc(Cl)cc2)C(O)C1OCc1ccccc1 (stereo not shown) [compound 389]
Human κ-Opioid (KOP); human KOP membranes
  A2: inhibition of radioligand binding: − (“−” indicates less than 50% inhibition at 10 μM)
[1]; [125I]-S36057, human MCH1 membranes, 10 µM
  A6: inhibition of radioligand binding: − (“−” indicates less than 50% inhibition at 10 μM)
Human neurokinin (NK1); human NK1 membranes
  A8: inhibition of radioligand binding: + (“+” indicates greater than 50% inhibition at 10 μM)
Human μ-opioid (MOP); human MOP membranes
  A7: inhibition of radioligand binding: − (“−” indicates less than 50% inhibition at 10 μM)
Human melanocortin (MC5); human MC5 membranes
  A5: inhibition of radioligand binding: + (“+” indicates greater than 50% inhibition at 10 μM)
Human δ-opioid (DOP); human DOP membranes
  A1: inhibition of radioligand binding: − (“−” indicates less than 50% inhibition at 10 μM)
[2]; human NPY-Y1 membranes
  A9: inhibition of radioligand binding: − (“−” indicates less than 50% inhibition at 10 μM)
Human opioid (ORL1); human ORL1 membranes, 10 µM
  A10: inhibition of radioligand binding: + (“+” indicates greater than 50% inhibition at 10 μM)
Mouse urotensin (mUR2); mouse mUR2 membranes
  A11: inhibition of radioligand binding: − (“−” indicates less than 50% inhibition at 10 μM)
Human Melanocortin (MC4); human MC4 membranes
  A4: inhibition of radioligand binding: + (“+” indicates greater than 50% inhibition at 10 μM)
Human Melanocortin (MC3); human MC3 membranes, 10 µM
  A3: inhibition of radioligand binding: + (“+” indicates greater than 50% inhibition at 10 μM)

## CO[C@H]1[C@H](O)[C@@H](COCc2ccc(-c3ccccc3)cc2)OC(OCc2ccc3ccccc3c2)[C@@H]1NC(=O)CCCN (stereo partly shown) [compound 68]
Human κ-Opioid (KOP); human κ-opioid (KOP) membranes
  A2 radioligand binding inhibition: − (“−” indicates less than 50% inhibition at 10 μM)
[1]; human MCH1 membranes
  A6 radioligand binding inhibition: + (“+” indicates greater than 50% inhibition at 10 μM)
Human neurokinin (NK1); human neurokinin NK1 membranes
  A8 radioligand binding inhibition: + (“+” indicates greater than 50% inhibition at 10 μM)
Human μ-opioid (MOP); human μ-opioid (MOP) membranes
  A7 radioligand binding inhibition: − (“−” indicates less than 50% inhibition at 10 μM)
Human melanocortin (MC5); human melanocortin MC5 membranes
  A5 radioligand binding inhibition: + (“+” indicates greater than 50% inhibition at 10 μM)
Human δ-opioid (DOP); human δ-opioid (DOP) membranes
  A1 radioligand binding inhibition: − (“−” indicates less than 50% inhibition at 10 μM)
[2]; human NPY-Y1 membranes
  A9 radioligand binding inhibition: − (“−” indicates less than 50% inhibition at 10 μM)
Human opioid (ORL1); human ORL1 membranes
  A10 radioligand binding inhibition: − (“−” indicates less than 50% inhibition at 10 μM)
Mouse urotensin (mUR2); mouse urotensin mUR2 membranes
  A11 radioligand binding inhibition: − (“−” indicates less than 50% inhibition at 10 μM)
Human Melanocortin (MC4); human melanocortin MC4 membranes
  A4 radioligand binding inhibition: + (“+” indicates greater than 50% inhibition at 10 μM)
Human Melanocortin (MC3); human melanocortin MC3 membranes
  A3 radioligand binding inhibition: + (“+” indicates greater than 50% inhibition at 10 μM)

Source: patent publication US20080009418A1, “Selective Inhibitors” (Alchemia LTD., priority 2004, published 2008)
